In patent US20220372040A1, “METTL3 MODULATORS” (Accent Therapeutics, Inc., priority 2020, published 2022):

Columns and labels:
METTL3/METTL14 = METTL3/METTL14 (Homo sapiens, UniProt Q86U44); assay: METTL3-14 standard enzyme assay (3H-SAM flashplate scintillation); format: biochemical; conditions: METTL3/METTL14 2.5 nM, RNA 100 nM, 3H-SAM 100 nM, 30 min
Method in brief: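 Radiometric methylation readout: biotinylated RNA substrate UCUGGACUAAA and 3H-SAM, each 100 nM final, reacted 30 min at ambient temperature with 2.5 nM enzyme complex after 5 min compound preincubation (HEPES pH 7.5 buffer, KCl, MgCl2, DTT). Excess unlabelled SAM (15 μM) stopped reactions before streptavidin flashplate capture.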

MOLM-13 cells [1] = assay: MOLM-13 96 Hour cell proliferation assay (Cell Titer-Glo); format: cell-based; conditions: Homo sapiens
Method in brief: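 MOLM-13 cells were seeded at 600 cells/well in RPMI 1640 with 10% FBS, then incubated overnight. Compounds were added at 0.25% DMSO final for 96 h at 37° C, with CellTiter-Glo luminescence read-out. Values normalized to staurosporine (100% death) and DMSO (0%); IC50 from 4-parameter logistic fit.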

[2] = tested on: m^6 A in cellular mRNA of MOLM-13 cells; assay: m^6 A-mRNA LC-MS/MS assay (m^6 A cellular assay); format: cell-based; conditions: Homo sapiens, 24 hours incubation, LC-MS/MS of m^6 A/A in mRNA
Method in brief: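 MOLM-13 cells in RPMI 1640 with 10% FBS dosed 24 h at 37° C. with 8-point, 4-fold series from 25 μM to 1.5 nM, 0.25% DMSO. Extracted mRNA digested to nucleosides and quantified by LC-MS/MS against standards; result expressed as 100*(m^6 A/A).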

MOLM-13 cells [3] = assay: MOLM-13 48 Hour cell proliferation assay (Cell Titer-Glo); format: cell-based; conditions: Homo sapiens
Method: MOLM-13 48 Hour Cell Proliferation Assay
MOLM-13 (DSMZ) cells were seeded at 1000 cells per well in a volume of 44 μL in a Falcon 384-well tissue culture treated clear bottom microplate in RPMI 1640 media containing 10% fetal bovine serum using a Multidrop Combi (ThermoFisher Scientific). Cells were incubated overnight at 37° C. in a humidified tissue culture incubator. The Mosquito® HTS Liquid Handler was used to make a compound/media intermediate plate by aliquoting […] of compound from the initial compound dilution plate (concentrations ranging from 10.0 mM to 38.0 nM in 100% DMSO) into a V bottom 384-well screen matrix plate containing 49 µL of media containing the appropriate serum (50-fold dilution, 2% DMSO). The Apricot liquid handling system was used to transfer […] compounds from the intermediate plate into the Falcon 384-well tissue culture plate containing 44 μL cells (10-point, 4-fold dilution spanning concentrations 25.0 μM to […], 0.25% DMSO final), and placed in a humidified tissue culture incubator at 37° C. After 48 hours, 25 μL of Cell Titer-Glo reagent (Promega) was added to each well using a Multidrop Combi. The plate was protected from light and placed on an IKA plate shaker for at 300 rpm for 10 minutes at room temperature. The plate was read on an EnVision plate reader (Perkin Elmer) using the Ultra Sensitive Luminescence protocol. Data analysis was performed by normalizing the raw luminescence units to an average of the positive control values for staurosporine (100% cell death) and the negative control values for DMSO (0% cell death). An IC50 was calculated using a 4-parameter logistic nonlinear regression model in GraphPad Prism.

Sequence of METTL3/METTL14 (Q86U44 whole entry, species assumed): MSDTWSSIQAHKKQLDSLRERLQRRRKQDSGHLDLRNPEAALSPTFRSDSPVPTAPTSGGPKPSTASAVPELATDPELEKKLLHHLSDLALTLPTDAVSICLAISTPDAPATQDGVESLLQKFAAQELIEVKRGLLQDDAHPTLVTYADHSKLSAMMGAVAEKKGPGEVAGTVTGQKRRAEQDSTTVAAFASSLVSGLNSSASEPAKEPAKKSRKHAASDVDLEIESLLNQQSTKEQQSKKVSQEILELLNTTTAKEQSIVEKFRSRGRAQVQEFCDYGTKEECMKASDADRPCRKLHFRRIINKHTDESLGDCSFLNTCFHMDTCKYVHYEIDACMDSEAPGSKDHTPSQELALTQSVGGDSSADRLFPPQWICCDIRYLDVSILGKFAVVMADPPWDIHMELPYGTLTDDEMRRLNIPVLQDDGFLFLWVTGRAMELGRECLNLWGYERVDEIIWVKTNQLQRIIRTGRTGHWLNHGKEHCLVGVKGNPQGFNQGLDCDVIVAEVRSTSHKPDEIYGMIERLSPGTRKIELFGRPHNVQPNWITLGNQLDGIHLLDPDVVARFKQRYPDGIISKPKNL
Sequence of METTL3/METTL14 (Q9HCE5 whole entry partner, species assumed): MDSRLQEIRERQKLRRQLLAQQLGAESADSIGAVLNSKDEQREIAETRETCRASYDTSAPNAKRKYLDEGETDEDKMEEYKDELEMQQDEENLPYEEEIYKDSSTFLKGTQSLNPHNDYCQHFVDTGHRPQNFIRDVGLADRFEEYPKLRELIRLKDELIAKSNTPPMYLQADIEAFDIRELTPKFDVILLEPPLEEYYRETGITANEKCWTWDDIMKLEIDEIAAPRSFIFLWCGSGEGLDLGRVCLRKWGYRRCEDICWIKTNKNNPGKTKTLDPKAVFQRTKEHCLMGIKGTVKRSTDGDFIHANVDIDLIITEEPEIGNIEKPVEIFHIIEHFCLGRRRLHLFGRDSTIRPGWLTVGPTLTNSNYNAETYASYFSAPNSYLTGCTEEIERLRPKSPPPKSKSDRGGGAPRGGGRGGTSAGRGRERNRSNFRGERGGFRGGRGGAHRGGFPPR

| Compound | IC50 (METTL3/METTL14) [nM] | IC50 (MOLM-13 cells [1]) [nM] | IC50 [2] [µM] | IC50 (MOLM-13 cells [3]) [nM] |
| --- | --- | --- | --- | --- |
| C[C@@H]1CCN1c1ccc2ccc(OCc3cncc(-n4cc(C5CCCC5)c5c(N)ncnc54)c3)cc2n1 [Compound I-124] | 10 to 100 | 1000 to 10000 | – | – |
| CCNc1ccc2ccc(OCc3cccc(-n4cc(Cl)c5c(N)ncnc54)c3)cc2n1 [Compound I-61] | 10 to 100 | 1000 to 10000 | – | – |
| CCc1cc(NCCCN(C)C)c2ccc(CCc3cncc(-n4ccc5c(N)ncnc54)c3)cc2n1 [Compound I-127] | < 10 | ≥ 10000 | – | – |
| CNc1ccc2ccc(OCc3cncc(-n4cc(-c5ncco5)c5c(N)ncnc54)c3)cc2n1 [Compound I-235] | < 10 | ≥ 10000 | – | – |
| CNc1ccc2ccc(OCc3cncc(-n4c(C)cc5c(N)ncnc54)c3)cc2n1 [Compound I-36] | 10 to 100 | – | 1 to 10 | 1000 to 10000 |
| Nc1nc2cc(OCc3cncc(-n4ccc5c(N)ncnc54)c3)ccc2cc1Br [Compound I-111] | > 1000 | ≥ 10000 | – | – |
| Cn1ccc(-c2cn(-c3cncc(CCc4ccc5ccc(N)nc5c4)c3)c3ncnc(N)c23)n1 [Compound I-114] | < 10 | 1000 to 10000 | – | – |
| CCc1cc(N(C)CCOC)c2ccc(CCc3cncc(-n4cc(-c5ccn(C)n5)c5c(N)ncnc54)c3)cc2n1 [Compound I-117] | < 10 | < 1000 | < 1 | – |
| CNc1ccc2ccc(OCc3cc(CO)cc(-n4cc(Cl)c5c(N)ncnc54)c3)cc2n1 [Compound I-34] | < 10 | – | ≥ 10 | < 1000 |
| Nc1ncnc2c1c(C1CCCO1)cn2-c1cncc(CCc2ccc3ccc(N4CCC4)nc3c2)c1 (stereo not drawn) [Compound I-126] | < 10 | 1000 to 10000 | 1 to 10 | – |
| CCc1cc(NCCOC)c2ccc(CCc3cncc(-n4cc(-c5ccn(C)n5)c5c(N)ncnc54)c3)cc2n1 [Compound I-115] | < 10 | < 1000 | < 1 | – |
| CNc1ccc2ccc(CCc3cncc(-n4ccc5c(N)ncnc54)c3)cc2n1 [Compound I-30] | 10 to 100 | – | 1 to 10 | 1000 to 10000 |
| Cn1ccc(-c2cn(-c3cncc(CCc4ccc5cc(Br)c(N)nc5c4)c3)c3ncnc(N)c23)n1 [Compound I-123] | > 1000 | 1000 to 10000 | – | – |
| CNc1ccc2ccc(OCc3cncc(-n4cc(CC5CC5)c5c(N)ncnc54)c3)cc2n1 [Compound I-29] | < 10 | – | 1 to 10 | < 1000 |
| CNc1ccc2ccc(OCc3cncc(-n4cc(-c5ccnn5C)c5c(N)ncnc54)c3)cc2n1 [Compound I-35] | < 10 | – | ≥ 10 | < 1000 |
| CNc1ccc2ccc(OCc3cncc(-n4cc(-c5ccc(C)o5)c5c(N)ncnc54)c3)cc2n1 [Compound I-234] | < 10 | 1000 to 10000 | 1 to 10 | – |
| CCNc1ccc2ccc(OCc3cncc(-n4cc(-c5ccn(C)n5)c5c(N)ncnc54)c3)cc2n1 [Compound I-128] | < 10 | 1000 to 10000 | 1 to 10 | – |
| CNc1ccc2ccc(OCc3cncc(-n4cc([C@H]5CCCO5)c5c(N)ncnc54)c3)cc2n1 [Compound I-112] | < 10 | < 1000 | 1 to 10 | – |
| CCc1cc(N2CCC(F)(F)CC2)c2ccc(OCc3cncc(-n4ccc5c(N)ncnc54)c3)cc2n1 [Compound I-118] | < 10 | 1000 to 10000 | – | – |
| CNc1ccc2ccc(OCc3cncc(-n4cc(C(C)C5CC5)c5c(N)ncnc54)c3)cc2n1 (stereo not drawn) [Compound I-120] | < 10 | 1000 to 10000 | – | – |
| CNc1ccc2cc(CCc3cccc(-n4cc(Cl)c5c(N)ncnc54)c3)ccc2n1 [Compound I-70] | 100 to 1000 | 1000 to 10000 | ≥ 10 | 1000 to 10000 |
| CNc1ccc2ccc(OCc3cncc(-n4cc([C@@H]5CCCO5)c5c(N)ncnc54)c3)cc2n1 [Compound I-113] | < 10 | 1000 to 10000 | < 1 | – |
| CNc1ccc2ccc(OCc3cccc(-n4cc(Cl)c5c(N)ncnc54)c3)cc2n1 [Compound I-87] | 10 to 100 | 1000 to 10000 | – | 1000 to 10000 |
| CNc1ccc2ccc(OCc3cncc(-n4cc(Cl)c5c(N)ncnc54)c3)cc2n1 [Compound I-74, 7-((5-(4-amino-5-chloro-7H-pyrrolo[2,3-d]pyrimidin-7-yl)pyridin-3-yl)methoxy)-N-methylquinolin-2-amine] | < 10 | 1000 to 10000 | 1 to 10 | 1000 to 10000 |
| CCc1cc(N2CCNCC2)c2ccc(OCc3cncc(-n4cc(-c5ccn(C)n5)c5c(N)ncnc54)c3)cc2n1 [Compound I-121] | < 10 | < 1000 | 1 to 10 | – |
| CNc1ccc2ccc(OCc3cncc(-n4cc(C5CCCC5)c5c(N)ncnc54)c3)cc2n1 [Compound I-58] | < 10 | < 1000 | 1 to 10 | < 1000 |
| CNc1ccc2ccc(OCc3cc(Br)cc(-n4cc(Cl)c5c(N)ncnc54)c3)cc2n1 [Compound I-75] | 100 to 1000 | 1000 to 10000 | – | – |
| CCc1cc(NC)c2ccc(CCc3cncc(-n4cc(-c5ccn(C)n5)c5c(N)ncnc54)c3)cc2n1 [Compound I-122] | < 10 | < 1000 | – | – |
| CNc1ccc2ccc(CCc3cncc(-n4cc(F)c5c(N)ncnc54)c3)cc2n1 [Compound I-116] | < 10 | 1000 to 10000 | – | – |
